Six sequences from publication PMC10066226, “An ultra-high-throughput screen for the evaluation of peptide HLA-Binder interactions” (Scientific Reports, 2023) can be followed below.

Where two headings read alike, the source gives them in different places.

This test addresses model TCER IMAHiAff#1. The experiment in a line: BLI measurements (Octet RED384) of peptide-loaded disulfide-stabilized pHLA. Type of test: binding. The source says: In order to confirm our results obtained from the ultra high throughput highSCORE measurements, we compared the KD values with the corresponding ones from BLI measurements (Fig. 4). The direct correlation between the two methods can be described as a hockey stick. Many peptides with single amino acid mutations show similar KD values as the WT peptide. This is especially the case for KD values obtained from the highSCORE measurements. Within the BLI data set, most of the library peptides show a higher KD value compared to the corresponding WT peptide (Fig. 4a). This relation results in a flat region within the correlation plot. All other peptide, with the exception of the ones highlighted with an arrow, show a good linear correlation between both data sets. It is important to note that while the spectroscopic principle behind BLI and highSCORE is similar, the experimental procedure is different. Using BLI, the pHLA complexes are bound to a sensor tip, which is dipped into a microtiter plate well containing the analyte. Thereafter, the sensor tip is wiggled within the well to ensure that the analyte is not depleted on the surface. In contrast, during a highSCORE measurement, the analyte is flushed over the microarray using a thin flow chamber. This makes the experimental procedure of a highSCORE measurement more similar to that of an SPR device. Consequently, differences in the KD values between BLI and highSCORE measurements are to be expected and might explain the shift in the overall distribution of the KD values (Fig. 4b). […] Since both measurement methods have their own advantages and disadvantages, it is difficult to tell which of the two methods provides the values that are closest to reality.
BLI measurements were performed on an Octet RED384 system using anti-Penta-His biosensors. In short, disulfide-stabilized molecules were refolded and peptide-loaded as previously described. All analytes or ligands were diluted to their final concentration in kinetics buffer (PBS, 0.1% BSA, 0.05% Tween-20) if not specified otherwise. All biosensors were hydrated for at least 10 minutes in kinetics buffer before use. Loadings and measurements were performed in 384 tilted well plates (Pall Fortébio) with at least 40 μ l at a 3 mm sensor offset. Plate temperature was set at 30 ^∘ C and shaker speed at 1000 rpm. To generate a baseline, sensors were dipped in kinetics buffer for 60 s before being loaded with 10 ug/ml of peptide loaded disulfide-stabilized pHLA for 120 s. Afterwards, a second 120 s baseline was recorded before a 60 s association and a 240 s dissociation phase. After individual measurements, sensors were regenerated using 10 mM Glycine pH 1.5 4 times for 5s each before another cycle was performed. 4 TCER concentrations (500nM, 158.1nM, 50nM and 15.8nM) were measured for each pHLA complex. A sensor loaded with an irrelevant pHLA was measured in line for reference sensor subtraction. All sensorgrams were analyzed using the OctetRED software “Data Analysis HT” version 11.0.0.50 (Pall Fortébio). Raw sensor data was aligned at the Y axis by aligning the data to the end of the baseline step, and inter-step correction was used to align the start of the dissociation to the end of the association phase. Savitzky-Golay filtering was applied. Resulting sensorgrams were then fitted using a 1:1 Langmuir kinetics binding model. In case of lower affinity binding events, the lower two concentrations were excluded from the fitting.

Take SLLQHLDGL [D7]: the BLI_KD result is recorded as “no fit”.
The same measure, in the same setting: the entry for SLLQHLEGL [E7] is “no fit”; for SLLQHLIFL [F8] it is “no fit”; for SLLQHLIWL [W8] it is “no fit”.
On to SLLQHLWGL [W7], for which, where the note is “std in a column of its own”, the BLI_KD entry was “no fit”.
Still for that read-out and setting: the entry for SLLQHPIGL [P6] is “no fit”.
